Data taken from ChEMBL document CHEMBL1811835, “Intramolecular ion-pair prodrugs of zanamivir and guanidino-oseltamivir” (Bioorg Med Chem, 2011).

Assays:
[1] = Octanol-water distribution coefficient, log D of the compound at pH 7.4 at 100 ug/mL; type: physicochemical
Plasma [2] = experiment: Stability in Sprague-Dawley rat plasma at 1 mM incubated for 24 hrs at 37 degC by LC-QTOF mass spectrometry; type: ADME, cell-free; conditions: 1000 µM
Plasma [3] = experiment: Stability in Sprague-Dawley rat plasma at 1 mM incubated for 24 hrs at 37 degC by MALDI-TOF mass spectrometry; type: ADME, cell-free; conditions: 1000 µM
[4] = Octanol-water distribution coefficient, log D of the compound at pH 6.5; type: physicochemical

SMILES | logD ([1]; read-out: logD) | logD [4] | other results
CCOC(=O)C1=C[C@H](NC(=N)N)[C@@H](NC(C)=O)[C@H]([C@H](O)[C@H](O)CO)O1 | -0.28 |  | 
CCC(CC)O[C@@H]1C=C(C(=O)OCCCOC(=O)c2ccc3ccccc3c2O)C[C@H](NC(=N)N)[C@H]1NC(C)=O | 0.82 |  | 
CCC(CC)O[C@@H]1C=C(C(=O)O)C[C@H](NC(=N)N)[C@H]1NC(C)=O |  |  | logD [1]: -0.13
CCC(CC)O[C@@H]1C=C(C(=O)O)C[C@H](N)[C@H]1NC(C)=O [OSELTAMIVIR CARBOXYLATE] | -1.5 |  | 
CC(=O)N[C@H]1[C@H]([C@H](O)[C@H](O)CO)OC(C(=O)O)=C[C@@H]1N=C(N)N [ZANAMIVIR] | -1 |  | 

Now from value to compound, other results behind:

logD ([1]; read-out: logD) | logD [4] | SMILES | other results
0.75 |  | CC(=O)N[C@H]1[C@H]([C@H](O)[C@H](O)CO)OC(C(=O)OCCCOC(=O)c2ccc3ccccc3c2O)=C[C@@H]1NC(=N)N | Stability (Plasma [2]): Stable; Stability (Plasma [3]): Stable
0.31 | -1.17 | CCOC(=O)C1=C[C@@H](OC(CC)CC)[C@H](NC(C)=O)[C@@H](NC(=N)N)C1 | 
0.16 | 0.25 | O=C(O)c1ccc2ccccc2c1O [CARBOXYNAPHTHOL] | 
 | -1.31 | CCCCCCCOC(=O)C1=C[C@H](NC(=N)N)[C@@H](NC(C)=O)[C@H]([C@H](O)[C@H](O)CO)O1 [ZANAMIVIR HEPTYL ESTER] | 
